Data set [1] concerns interleukin 2 (IL-2) production by human peripheral blood T cells. The data set is described as follows: Inhibition test for interleukin 2 (IL-2) production by human peripheral blood T cells. As to conditions: anti-CD3 antibody coated plates; CHO cells expressing B7-1; 48 hours, 37° C.; read-out: IC50 value (concentration for 50% suppression of interleukin-2 production). It is filed as cell-based. The procedure:
a) Expression of B7-1 in CHO cells
Using petri dishes 10 cm in diameter, 1×10^5 Chinese hamster ovary (CHO) cells were cultured in an αMEM medium containing 10% fetal bovine serum for 24 hours. To these cells, the B7-1 cDNA expression plasmid pME-B7-1 as obtained in Reference Example 1 (10 μg) and the neomycin resistance expression plasmid pME-neo (1 μg) were introduced by the calcium phosphate method. Forty-eight hours later, GENETICIN (G418 sulfate, GIBCO) was added to a final concentration of 0.5 mg/ml, and cells that acquired neomycin resistance were selected. For these selected cells, B7-1 expression was examined by flow cytometry (EPICS ELITE, COULTER), and cells showing high expression of B7-1 were obtained. These cells were cloned by the limiting dilution method to obtain B7-1-CHO-22, a cell line that stably expresses high amount of B7-1.
Inhibition test for interleukin 2 (IL-2) production by human peripheral blood T cells
Blood was collected from a healthy normal human, overlaid on lymphocyte separation medium (LSM, Organon Teknica Co.), and centrifuged at room temperature at 2,000 rpm for 20 minutes to obtain human peripheral blood mononuclear cells. […] The IL-2 produced in the culture supernatant was quantified using the HUMAN INTERLEUKIN-2 EIA KIT (Cayman Chemical Co.).

The target in the next data set is T1, binding of B7-1 to CD28 (Homo sapiens, UniProt P10747+P33681).
T1 construct: ligating the Fc region of human IgG to the C-terminal side of the extracellular region of B7-1; Fc region of human IgG (from plasmid pTB1455); expressed in transfected cells; soluble B7-1-Ig made in house by sB7-1-Ig-CHO-20 and purified from its supernatant
The data set can be described thus: Binding inhibition test using soluble B7-1-Ig. As to conditions: 10 μg/ml soluble B7-1-Ig; fixed CD28-expressing CHO cells; 30 minutes at room temperature; read-out: IC50 (concentration for 50% inhibition of binding) (converted). Here is the method:
b) Expression of CD28 in CHO cells
Using petri dishes 10 cm in diameter, 1×10^5 dihydrofolate reductase deficient (DHFR^-) CHO cells were cultured in an αMEM medium containing 10% fetal bovine serum for 24 hours. To these cells, the CD28cDNA expression plasmid pAKKO-CD28as obtained in Reference Example 1 (10 μg) was introduced by the calcium phosphate method. Forty-eight hours later, the medium was replaced with an αMEM medium (no nucleic acid contained) containing 10% dialyzed fetal bovine serum, and cells incorporating the plasmid in their chromosome were selected. For these selected cells, CD28 expression was examined by flow cytometry (EPICS ELITE, COULTER), and cells showing high expression of CD28were obtained. These cells were cloned by the limiting dilution method to obtain CD28-CHO-11, a cell line that stably expresses high amount of CD28. […]
c) Establishment of CHO cells that produce soluble B7-1-Ig
Using petri dishes 10 cm in diameter, 1×10^5 dihydrofolate reductase deficient (DHFR^31 ) CHO cells were cultured in an αMEM medium containing 10% fetal bovine serum for 24 hours. To these cells, 10 μg of the expression plasmid encoding soluble B7-1-Ig as obtained in Reference Example 22 was introduced by the calcium phosphate method. Forty-eight hours later, the medium was replaced with an αMEM medium (no nucleic acid contained) containing 10% dialyzed fetal bovine serum, and cells incorporating the plasmid into their chromosome were selected. For these selected cells, the amount of soluble B7-1-Ig produced in the culture supernatant was measured by EIA, and cells showing high productivity were obtained. These cells were cloned by the limiting dilution method to obtain sB7-1-Ig-CHO-20, a cell line that stably produces soluble B7-1-Ig. […]
d) Preparation of soluble B7-1-Ig
Using petri dishes 15 cm in diameter, the soluble B7-1-Ig-producing CHO cells obtained in term c) above (sB7-1-Ig-CHO-20) were cultured in an αMEM medium containing 10% fetal bovine serum to yield 5 l of culture supernatant. This culture supernatant was crudely purified using a protein G column (Chromatop Superprotein G, […] I.D.×10 cm, NGK Insulators, Ltd.) and further purified by gel filtration chromatography (TSKgel G3000SW, […] I.D.×[…], Tosoh) to yield 20 mg of a purified standard preparation.
Binding inhibition test using soluble B7-1-Ig
The CHO cells that expressed CD28obtained in Example 122 were suspended in an αMEM medium (no nucleic acid contained) containing 10% dialyzed fetal bovine serum, seeded into 96-well microplates (flat bottom) to 3×10^4 cells/well, and cultured in the presence of 5% CO2 at 37° C. for 48 hours. The culture supernatant was removed by aspiration from each plate to which cells adhered, followed by the addition of phosphate buffer saline (PBS) containing 0.5% paraformaldehyde to fix the cells. After this plate was washed twice with PBS containing 10% Block Ace (Snow Brand Milk Products), 10 μg/ml soluble B7-1-Ig and a sample were added to each well. Binding reaction was carried out by keeping the plate standing at room temperature for 30 minutes. After the reaction, the plate was washed twice with PBS containing 10% Block Ace (Snow Brand Milk Products), followed by the addition of peroxidase-labeledanti-human IgG (Cappel) and 2 hours of reaction. The plate was further washed twice with PBS containing 10% Block Ace (Snow Brand Milk Products), after which 100 μl of a 0.1M citrate buffer containing 6.5 mg/ml ortho-phenylenediamine dihydrochloride (Wako Pure Chemical Industries) and 0.06% hydrogen peroxide was added to each well. Twenty minutes later, the coloring reaction was stopped with 2N sulfuric acid, and the absorbance at 492 nm was determined using a plate reader (BIO-RAD Model 1450).

Another data set has as its system mice. The data set can be described thus: Toxicity test. It is filed as in vivo. Particulars: intraperitoneally, 400 mg/kg.

This is an account of results in patent US6221637A, “Xanthene derivatives, their production and use” (Takeda Chemical Industries, Ltd., priority 1996, dated 2001).

Values after ≈ are worked out from the molar mass of the structure shown.

T1 sequence (P10747 19-220): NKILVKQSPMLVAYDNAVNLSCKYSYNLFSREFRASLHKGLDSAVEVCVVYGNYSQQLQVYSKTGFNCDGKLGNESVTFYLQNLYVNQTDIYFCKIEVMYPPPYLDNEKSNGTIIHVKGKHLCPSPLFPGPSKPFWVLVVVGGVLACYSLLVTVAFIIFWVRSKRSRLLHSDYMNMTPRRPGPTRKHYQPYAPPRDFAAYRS
T1 sequence (P33681 with tags, fused parts or gaps): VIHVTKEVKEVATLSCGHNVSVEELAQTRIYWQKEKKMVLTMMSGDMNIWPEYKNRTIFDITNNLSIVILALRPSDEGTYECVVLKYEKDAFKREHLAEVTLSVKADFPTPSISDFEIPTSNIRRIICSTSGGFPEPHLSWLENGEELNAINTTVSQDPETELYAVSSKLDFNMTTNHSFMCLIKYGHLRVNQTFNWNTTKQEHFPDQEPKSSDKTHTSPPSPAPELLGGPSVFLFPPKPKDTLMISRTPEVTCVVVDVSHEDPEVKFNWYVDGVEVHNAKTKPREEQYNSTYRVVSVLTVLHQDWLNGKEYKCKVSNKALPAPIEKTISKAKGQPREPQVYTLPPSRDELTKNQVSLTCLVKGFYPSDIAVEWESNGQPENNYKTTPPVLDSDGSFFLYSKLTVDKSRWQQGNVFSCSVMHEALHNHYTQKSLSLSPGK

For the compound `COC(=O)c1c(SCC(=O)O)c(O)cc2oc3c(Cl)c(C)c(Cl)c(O)c3c(=O)c12` [Compound 1], the IC50 in data set [1] is 10 µg/mL (≈ 21.8 µM); at binding of B7-1 to CD28, 305 nM. Also, the “deaths after intraperitoneal administration” value in the data set on mice was “no animals died”.

In the case of `CCC(=O)Oc1c(Cl)c(C)c(Cl)c2oc3cc(O)c(SCC(=O)O)c(C(=O)OC)c3c(=O)c12` [Compound 27], the IC50 on binding of B7-1 to CD28 was less than 194 nM.

In the case of `COC(=O)c1c([S+]([O-])CC(=O)O)c(O)c(I)c2oc3c(Cl)c(C)c(Cl)c(O)c3c(=O)c12` (centres unmarked) [Compound 54, methyl 2-(carboxymethylsulfinyl)-5,7-dichloro-3,8-dihydroxy-4-iodo-6-methyl-9-oxo-9H-xanthene-1-carboxylate], at binding of B7-1 to CD28, the IC50 is less than 166 nM.

With `COC(=O)c1c([S+]([O-])CC(=O)O)c(O)cc2oc3c(Cl)c(C)c(Cl)c(O)c3c(=O)c12` (centres unmarked) [Compound 17, methyl 2-(carboxymethylsulfinyl)-5,7-dichloro-3,8-dihydroxy-6-methyl-9-oxo-9H-xanthene-1-carboxylate], the IC50 on binding of B7-1 to CD28 is less than 210 nM.

Take `COC(=O)c1c(SCC(=O)O)c(O)c(I)c2oc3c(Cl)c(C)c(Cl)c(O)c3c(=O)c12` [Compound 40]: on binding of B7-1 to CD28, the IC50 is 171 nM.

For the compound `COC(=O)c1c(SCC(=O)O)c(O)c([N+](=O)[O-])c2oc3c(Cl)c(C)c(Cl)c(O)c3c(=O)c12` [Compound 132], on binding of B7-1 to CD28, the IC50 is 238 nM.
